In patent US10913750B2, “Tubulin-binding compounds, compositions and uses related thereto” (The Regents of the University of California, priority 2015, dated 2021):

Assays:
[1] = tested on: β-tubulin; assay: Crystal structure of T2R-TTL tubulin complex soaked with ligand; format: binding, bovine; details: T2R-TTL crystal soaked 24 hours with 1 mM compound
Procedure: The crystal structure of tubulin bound to two ligands described here was obtained using an established system for tubulin crystal growth. […] Methods in Cell Biology 2010, 95:373-390.) Briefly, bovine αβ-tubulin, human RB3 or rat STMN4 stathmin-like domain, and chicken tubulin tyrosine ligase (TTL) reconstitute to form a stathmin-bound αβ-tubulin (T2R) T2R-TTL complex, which readily crystallizes. […]
The final resolution cutoffs described here were determined optimally from a subset of diffraction images that took into consideration the signal-to-noise ratio for reflection intensities and the random half-data set correlation coefficient, CC1/2 (Karplus P. A., Diederichs K. Linking crystallographic model and data quality. Science 2012, (New York, N.Y.) 336:1030-1033.) […]

[2] = tested on: breast adenocarcinoma (MCF7); assay: Cell viability, MCF7; format: cell-based; details: Homo sapiens; MCF7 cells
Procedure: (§1) To determine if MI-181 had broad anti-cancer activity, we treated a diverse panel of cancer cell lines including cervical adenocarcinoma (HeLa), breast adenocarcinoma (MCF7), melanoma (M233), osteosarcoma (U205), acute lymphoblastic leukemia (CCRF-CEM), non-small cell lung carcinoma (NCI-H460), and breast adenocarcinoma (MCF7) with MI-181 and determined its cell viability IC50 (FIGS. 13A and 13B). […] Therefore, the efficacy of MI-181 was analyzed in a panel of melanoma cell lines with defined genetic backgrounds including BRAF^V600E and NRAS^Q61L mutations and varied sensitivities to Vemurafenib (BRAF inhibitor) and Trametinib (MEK inhibitor), which are currently used to treat BRAF^V600E melanomas^43,44 (FIG. 10c). […] As a general trend BRAF^V600E cell lines were slightly more sensitive than NRAS^Q61L cell lines and MI-181 was effective in Vemurafenib and Trametinib resistant cell lines (FIG. 10c and Table 3). Finally, we tested the ability of MI-181 to inhibit melanoma colony formation using the M233 and M308 cell lines (both resistant to Vemurafenib). Indeed, MI-181 was a potent inhibitor of colony formation (percentage colony formation for 10 nM MI-181=0.2±0.1 and 0.8±0.7; for 10 nM colchicine=0.1±0.06 and 1.5±0.5; and for 10 nM Vemurafenib=94±7 and 102±5) (FIG. 10d). Thus, MI-181 is a potent inhibitor of melanoma cell lines. […]

[3] = tested on: M207; assay: CellTiter-Glo cell viability, M207; format: cell-based
Procedure: as §1

- binding to tubulin in crystal structure [1]: bound to β-tubulin
- IC50 [2]: 11 µM
SMILES: Cc1cc2nc(/C=C/c3cccnc3)sc2cc1C [MI-181]
- IC50 [3]: 0.0417 µM
